Converted amounts (≈) assume the structure as drawn. The source made the active and inactive calls. The rule behind the calls is not given here.
How the values were obtained:
[1] = Metabolic stability in human hepatocyte assessed as M3 metabolite formation at 1 uM and measured upto 15 mins in presence of NADPH regenerating system by LC-MS/MS analysis; assay type: ADME, cell-based; settings: hepatocytes, 0.25 h
[2] = target: T1, C-X-C chemokine receptor type 3 (Homo sapiens, UniProt P49682); assay: Antagonist activity at CXCR3 in human whole blood assessed as receptor internalization incubated for 30 mins in presence of CXCL10 by flow cytometric analysis; assay type: tissue-based
T1 sequence (P49682 whole entry): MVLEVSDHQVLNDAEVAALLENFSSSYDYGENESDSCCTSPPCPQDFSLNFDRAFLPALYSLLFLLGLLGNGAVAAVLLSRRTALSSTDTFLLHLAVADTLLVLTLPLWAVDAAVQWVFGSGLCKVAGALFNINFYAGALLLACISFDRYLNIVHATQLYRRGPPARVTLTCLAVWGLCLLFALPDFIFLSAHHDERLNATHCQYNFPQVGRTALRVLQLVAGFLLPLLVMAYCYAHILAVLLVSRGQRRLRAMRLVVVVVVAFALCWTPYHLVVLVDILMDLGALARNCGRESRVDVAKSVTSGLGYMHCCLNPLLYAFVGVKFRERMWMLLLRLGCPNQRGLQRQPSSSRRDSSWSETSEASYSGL

[3] = target: Solute carrier organic anion transporter family member 1B3 (Homo sapiens, UniProt Q9NPD5); assay: Inhibition of human OATP1B3; assay type: ADME
Chain of Solute carrier organic anion transporter family member 1B3 (Q9NPD5 whole entry): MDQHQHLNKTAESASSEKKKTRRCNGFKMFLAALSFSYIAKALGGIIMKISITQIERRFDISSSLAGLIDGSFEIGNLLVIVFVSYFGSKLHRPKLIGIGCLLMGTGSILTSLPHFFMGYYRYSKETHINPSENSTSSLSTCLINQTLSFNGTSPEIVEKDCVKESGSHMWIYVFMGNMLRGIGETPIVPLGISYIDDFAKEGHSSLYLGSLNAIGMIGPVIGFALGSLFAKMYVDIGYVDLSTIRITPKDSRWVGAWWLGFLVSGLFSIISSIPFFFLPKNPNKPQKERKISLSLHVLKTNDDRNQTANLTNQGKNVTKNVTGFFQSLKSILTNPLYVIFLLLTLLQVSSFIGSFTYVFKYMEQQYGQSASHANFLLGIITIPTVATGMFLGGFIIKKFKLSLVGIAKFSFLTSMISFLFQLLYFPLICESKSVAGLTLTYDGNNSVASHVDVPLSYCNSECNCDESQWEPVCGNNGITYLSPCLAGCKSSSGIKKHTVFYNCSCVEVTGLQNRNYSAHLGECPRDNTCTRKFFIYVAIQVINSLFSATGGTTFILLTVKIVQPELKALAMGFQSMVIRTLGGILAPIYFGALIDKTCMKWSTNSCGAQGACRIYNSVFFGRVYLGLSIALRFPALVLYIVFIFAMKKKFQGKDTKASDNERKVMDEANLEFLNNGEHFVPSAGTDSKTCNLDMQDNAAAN

[4] = Cmax in Beagle dog at 2.5 mg/kg,iv or 2.5 mg/kg, po; assay type: ADME, organism-based, Canis lupus familiaris; design: dose 2.5 mg/kg, route iv; settings: in vivo
[5] = Metabolic stability in dog hepatocyte assessed as M2 metabolite formation at 1 uM and measured upto 15 mins in presence of NADPH regenerating system by LC-MS/MS analysis; assay type: ADME, cell-based, Canis lupus familiaris; settings: hepatocytes, 0.25 h
[6] = target: C-X-C chemokine receptor type 3 (Rattus norvegicus, UniProt Q9JII9); assay: Antagonist activity at CXCR3 in Wistar rat whole blood assessed as receptor internalization incubated for 30 mins in presence of CXCL10 by flow cytometric analysis; assay type: tissue-based
Chain of C-X-C chemokine receptor type 3 (Rattus norvegicus, UniProt Q9JII9) (Q9JII9 whole entry): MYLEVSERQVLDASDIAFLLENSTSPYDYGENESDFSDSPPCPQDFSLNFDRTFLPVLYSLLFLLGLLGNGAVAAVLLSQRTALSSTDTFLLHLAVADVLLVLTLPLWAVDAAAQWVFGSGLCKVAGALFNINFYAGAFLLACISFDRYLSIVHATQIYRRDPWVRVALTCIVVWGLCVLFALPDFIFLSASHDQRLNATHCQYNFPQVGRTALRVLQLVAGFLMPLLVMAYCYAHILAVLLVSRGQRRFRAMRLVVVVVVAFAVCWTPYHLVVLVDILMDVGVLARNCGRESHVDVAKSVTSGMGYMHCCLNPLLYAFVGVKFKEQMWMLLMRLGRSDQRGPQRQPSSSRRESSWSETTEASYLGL

[7] = target: C-C chemokine receptor type 5 (Homo sapiens) (UniProt P51681); assay: Binding affinity to CCR5 (unknown origin) at 10 uM by radioligand binding assay
Chain of C-C chemokine receptor type 5 (Homo sapiens) (P51681 whole entry, looked up): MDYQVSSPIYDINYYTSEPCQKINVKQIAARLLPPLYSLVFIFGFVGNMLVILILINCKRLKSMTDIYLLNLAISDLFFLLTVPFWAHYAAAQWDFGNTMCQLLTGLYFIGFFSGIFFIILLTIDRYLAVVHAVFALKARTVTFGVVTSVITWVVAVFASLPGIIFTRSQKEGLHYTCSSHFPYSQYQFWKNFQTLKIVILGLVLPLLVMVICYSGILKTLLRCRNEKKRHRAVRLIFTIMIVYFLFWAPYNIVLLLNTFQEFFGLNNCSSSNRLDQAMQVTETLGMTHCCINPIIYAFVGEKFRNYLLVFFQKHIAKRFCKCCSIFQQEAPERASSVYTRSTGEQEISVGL

[8] = Metabolic stability in rat hepatocyte assessed as M2 metabolite formation at 1 uM and measured upto 15 mins in presence of NADPH regenerating system by LC-MS/MS analysis; assay type: ADME, cell-based; settings: hepatocytes, 0.25 h
[9] = Half life in Cynomolgus monkey at 1.0 mg/kg,iv or 1.25 mg/kg, po; assay type: ADME, organism-based, Macaca fascicularis; settings: in vivo
[10] = Protein binding in rat plasma assessed as fraction unbound at 1 uM incubated for 6 hrs by rapid equilibrium dialysis based LC-MS/MS analysis; assay type: ADME, cell-free
[11] = Cmin in LPS-induced DBA/1 mouse plasma at 0.02 microg/g, po bid preincubated for 3 days followed by LPS stimulation for 30 mins and measured after 72 hrs by flow cytometry; assay type: ADME, organism-based; settings: dose 0.02 µg/g, time 3 day, read-out: Cmin
[12] = target: T1, C-X-C chemokine receptor type 3; assay: Antagonist activity at human CXCR3 expressed in CHO-K1 cells assessed as reduction in CXCL10 induced calcium flux by FLIPR method; assay type: cell-based
[13] = target: C-X-C chemokine receptor type 5 (Homo sapiens) (UniProt P32302); assay: Binding affinity to CXCR5 (unknown origin) at 10 uM by radioligand binding assay
Chain of C-X-C chemokine receptor type 5 (Homo sapiens) (P32302 whole entry): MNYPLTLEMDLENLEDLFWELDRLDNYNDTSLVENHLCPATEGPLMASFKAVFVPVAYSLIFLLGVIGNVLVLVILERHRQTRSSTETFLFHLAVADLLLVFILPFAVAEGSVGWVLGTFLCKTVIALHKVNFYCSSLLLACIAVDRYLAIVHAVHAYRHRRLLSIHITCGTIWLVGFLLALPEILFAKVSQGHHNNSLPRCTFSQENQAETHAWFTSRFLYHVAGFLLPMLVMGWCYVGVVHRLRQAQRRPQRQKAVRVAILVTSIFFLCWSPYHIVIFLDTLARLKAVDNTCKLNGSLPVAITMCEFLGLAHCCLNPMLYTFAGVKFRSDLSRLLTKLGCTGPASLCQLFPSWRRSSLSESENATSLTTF

[14] = target: T1, C-X-C chemokine receptor type 3; assay: Binding affinity to human CXCR3 expressed in CHO-K1 cell membrane assessed as dissociation constant using tritium-labeled ligand by […] assay; assay type: cell membranes
[15] = In vivo inhibition of hERG in po dosed dog assessed as increase in QTc interval; assay type: toxicity, organism-based, Canis lupus familiaris
[16] = Metabolic stability in rat hepatocyte assessed as M3 metabolite formation at 1 uM and measured upto 15 mins in presence of NADPH regenerating system by LC-MS/MS analysis; assay type: ADME, cell-based; settings: hepatocytes, 0.25 h
Cytochrome P450 2C9 = Cytochrome P450 2C9 (Homo sapiens, UniProt P11712); assay: Time dependent inhibition of CYP2C9 (unknown origin); assay type: ADME
Chain of Cytochrome P450 2C9 (P11712 whole entry): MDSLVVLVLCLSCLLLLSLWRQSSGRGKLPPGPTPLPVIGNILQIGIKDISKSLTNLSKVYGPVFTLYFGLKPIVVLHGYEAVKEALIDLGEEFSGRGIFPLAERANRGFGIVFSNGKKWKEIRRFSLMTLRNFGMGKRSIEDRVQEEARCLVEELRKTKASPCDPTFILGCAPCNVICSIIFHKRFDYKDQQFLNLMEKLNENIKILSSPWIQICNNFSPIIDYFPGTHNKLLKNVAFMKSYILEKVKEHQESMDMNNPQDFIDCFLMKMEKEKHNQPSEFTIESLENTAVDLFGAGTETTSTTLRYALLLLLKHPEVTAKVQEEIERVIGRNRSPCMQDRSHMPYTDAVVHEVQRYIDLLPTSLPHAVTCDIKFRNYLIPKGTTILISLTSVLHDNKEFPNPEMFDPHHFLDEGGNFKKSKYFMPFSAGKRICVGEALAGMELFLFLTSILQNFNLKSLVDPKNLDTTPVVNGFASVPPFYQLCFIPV

[17] = target: T2, C-X-C chemokine receptor type 3 (Mus musculus, UniProt O88410); assay: Antagonist activity at mouse CXCR3 expressed in CHO-K1 cells assessed as reduction in CXCL10 induced calcium flux by FLIPR method; assay type: cell-based
T2 sequence (O88410 whole entry): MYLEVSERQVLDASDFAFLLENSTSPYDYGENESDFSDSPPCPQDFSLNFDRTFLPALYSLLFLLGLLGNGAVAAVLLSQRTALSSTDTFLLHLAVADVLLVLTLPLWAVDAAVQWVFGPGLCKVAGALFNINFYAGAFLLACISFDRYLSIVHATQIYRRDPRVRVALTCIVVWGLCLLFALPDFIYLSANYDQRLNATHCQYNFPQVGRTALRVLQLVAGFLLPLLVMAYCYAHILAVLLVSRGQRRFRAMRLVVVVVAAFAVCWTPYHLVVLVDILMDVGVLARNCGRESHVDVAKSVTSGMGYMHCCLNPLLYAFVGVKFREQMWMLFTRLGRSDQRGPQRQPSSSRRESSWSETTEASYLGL

[18] = AUC (0 to last) in Cynomolgus monkey at 1.0 mg/kg,iv or 1.25 mg/kg, po; assay type: ADME, organism-based, Macaca fascicularis; design: dose 1 mg/kg, route iv; settings: in vivo
[19] = target: T1, C-X-C chemokine receptor type 3; assay: Antagonist activity at human CXCR3 expressed in CHO-K1 cells assessed as reduction in CXCL11 induced calcium flux by FLIPR method; assay type: cell-based
[20] = Total clearance in Beagle dog plasma at 1 mg/kg, iv; assay type: ADME, organism-based, Canis lupus familiaris
[21] = Protein binding in human plasma assessed as fraction unbound at 1 uM incubated for 6 hrs by rapid equilibrium dialysis based LC-MS/MS analysis; assay type: ADME, cell-free
Cytochrome P450 3A4 = Cytochrome P450 3A4 (Homo sapiens, UniProt P08684); assay: Time dependent inhibition of CYP3A4 (unknown origin); assay type: ADME
Chain of Cytochrome P450 3A4 (P08684 whole entry): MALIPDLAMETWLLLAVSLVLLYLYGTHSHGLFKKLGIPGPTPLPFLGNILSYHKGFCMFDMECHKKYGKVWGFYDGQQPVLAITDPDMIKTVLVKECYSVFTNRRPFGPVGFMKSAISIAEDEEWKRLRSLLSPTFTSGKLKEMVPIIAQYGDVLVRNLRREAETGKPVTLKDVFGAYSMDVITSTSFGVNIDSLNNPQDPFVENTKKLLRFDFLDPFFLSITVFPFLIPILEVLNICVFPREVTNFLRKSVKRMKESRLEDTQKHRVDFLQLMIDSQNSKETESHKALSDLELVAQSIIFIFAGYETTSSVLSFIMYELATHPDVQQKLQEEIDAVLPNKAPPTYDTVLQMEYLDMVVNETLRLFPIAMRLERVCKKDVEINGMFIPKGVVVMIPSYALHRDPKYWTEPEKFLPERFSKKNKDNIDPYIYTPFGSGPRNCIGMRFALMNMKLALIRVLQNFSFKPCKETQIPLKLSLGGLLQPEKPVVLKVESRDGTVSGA

[22] = Dissociation constant, pKa of compound; assay type: physicochemical
[23] = Half life in Beagle dog at 2.5 mg/kg,iv or 2.5 mg/kg, po; assay type: ADME, organism-based, Canis lupus familiaris; settings: in vivo
[24] = Protein binding in rat plasma assessed as fraction unbound at 20 ug/ml using 14C-labeled ligand by rapid equilibrium dialysis; assay type: ADME, cell-free; settings: at 20 µg/mL
[25] = Cmax in LPS-induced DBA/1 mouse plasma at 0.02 microg/g, po bid preincubated for 3 days followed by LPS stimulation for 30 mins and measured after 72 hrs by flow cytometry; assay type: ADME, organism-based; design: time 6 day, dose 0.02 µg/g, route po; settings: 0.02 µg/g
[26] = Solubility of compound in FeSSIF at 37 degreeC; assay type: ADME
[27] = Metabolic stability in rat hepatocyte assessed as M1 metabolite formation at 1 uM and measured upto 15 mins in presence of NADPH regenerating system by LC-MS/MS analysis; assay type: ADME, cell-based; settings: hepatocytes, 0.25 h
[28] = Oral bioavailability in Cynomolgus monkey at 1.25 mg/kg; assay type: ADME, organism-based, Macaca fascicularis; settings: in vivo
[29] = target: C-X-C chemokine receptor type 4 (Homo sapiens) (UniProt P61073); assay: Binding affinity to CXCR4 (unknown origin) at 10 uM by radioligand binding assay
Chain of C-X-C chemokine receptor type 4 (Homo sapiens) (P61073 whole entry): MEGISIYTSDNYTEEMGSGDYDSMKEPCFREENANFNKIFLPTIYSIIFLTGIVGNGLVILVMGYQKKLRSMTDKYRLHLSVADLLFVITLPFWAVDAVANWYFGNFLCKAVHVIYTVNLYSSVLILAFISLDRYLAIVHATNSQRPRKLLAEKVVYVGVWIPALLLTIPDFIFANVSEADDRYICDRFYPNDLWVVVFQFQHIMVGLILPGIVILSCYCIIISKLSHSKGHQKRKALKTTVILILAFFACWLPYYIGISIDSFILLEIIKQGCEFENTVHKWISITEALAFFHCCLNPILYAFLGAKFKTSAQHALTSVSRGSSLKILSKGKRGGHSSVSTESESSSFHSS

[30] = Metabolic stability in human hepatocytes assessed as intrinsic clearance per 10^6 cells at 1 uM by LC-MS/MS analysis; assay type: ADME, cell-based, Hepatocyte
[31] = target: T2, C-X-C chemokine receptor type 3; assay: Antagonist activity at mouse CXCR3 expressed in CHO-K1 cells assessed as reduction in CXCL11 induced calcium flux by FLIPR method; assay type: cell-based

Stability [1]: Unstable
IC50 [2]: 56 nM
inhibition (INH) [3]: Not Active
Cmax [4]: 910 ng/mL
Stability [5]: Unstable
IC50 [6]: 291 nM
Activity [7]: inactive
Stability [8]: Unstable
half-life [9]: 4 h
fraction unbound at 6 h, 1 µM [10]: 0.09
concentration at 72 h [11]: 99 ng/mL
IC50 [12]: 3.2 nM
Activity [13]: inactive
Kd [14]: 4.6 nM
Stability [16]: Unstable
IC50 (Cytochrome P450 2C9): > 50000 nM
IC50 [17]: 1.5 nM
AUC(0-t) [18]: 3610 ng·h/mL
IC50 [19]: 5.3 nM
clearance [20]: 5 mL/min/kg
fraction unbound at 6 h, 1 µM [21]: 0.23
IC50 (Cytochrome P450 3A4): > 50000 nM
pKa [22]: 2.2
half-life [23]: 5.3 h
fraction unbound at 20 ug/ml [24]: 0.12
Cmax [25]: 173 ng/mL
solubility [26]: 1250 µg/mL (≈ 2270 µM)
Stability [27]: Unstable
bioavailability [28]: 92%
Activity [29]: inactive
CLH [30]: < 2 µL/min/mg
IC50 [31]: 4.4 nM
SMILES: Cc1ncn(CC(=O)N2CCN(c3sc(C(F)(F)F)nc3-c3cnc(C(F)(F)F)nc3)C[C@H]2CCO)n1
inhibition (INH) [15]: Toxic

— ChEMBL document CHEMBL5247653, “Discovery of Clinical Candidate ACT-777991, a Potent CXCR3 Antagonist for Antigen-Driven and Inflammatory Pathologies” (J Med Chem, 2023)
